Columns and labels:
[1] = Example II irritation studies of nasal spray solutions without insulin (10 days); format: in vivo, human; conditions: longer than 5 days, polysorbate-80 added to nasal spray solution
Description: Chronic irritation studies, i.e., longer than 5 days, using polysorbate-80 according to the present invention have also been carried out.
Studies were carried out to determine the effect on nasal irritation of the addition of varying amounts of polysorbate-80 to nasal spray solutions containing N-9. […] In each study ten normal subjects were treated with one squirt (about 0.15 ml) of the nasal spray solution three times a day for ten consecutive days. After administration, the subjects were questioned about any symptoms and findings recorded. The nasal passages were examined on the fifth and tenth days of treatment by an ENT ([…], nose and throat) specialist and findings recorded.
The nasal spray solutions used in the study comprised 1% of a mixture of polysorbate-80:N-9, 1:9, wt:wt; 0.5% of a mixture of polysorbate-80:N-9, 1:9, wt:wt; 0.25% of a mixture of polysorbate-80:N-9, 1:9, wt:wt; 1% of a mixture of polysorbate-80:N-9, 1:3, wt:wt; 0.5% of a mixture of polysorbate-80:N-9, 1:3, wt:wt; 0.25% of a mixture of polysorbate-80:N-9, 1:3, wt:wt; 0.1% N-9 or a saline placebo. All of the nasal spray solutions produced minor changes in nasal mucosa and minor symptomatic complaints but the number encountered with 0.5% P-80:N-9, 1:9, and 0.5% P-80:N-9:1:3 (4 out of 10 subjects in each group) most closely paralleled the saline placebo (7 out of 20 subjects).

[2] = cited from earlier work

With polysorbate-80 as the substance, how does the chronic irritation [1] read?
Its chronic irritation is “reduces chronic irritation”.

What does the source list for laureth-9?
promotion of insulin absorption ([2]; 0.1% laureth-9, nasally): only moderately effective; absorption of nasally administered insulin ([2]; humans): enhanced absorption; tolerability of nasal administration ([2]; laureth-9 at 0.1% by weight, nasally): tolerated by all subjects tested; nasal irritation accompanying administration ([2]; nasally administered insulin in humans, effects proportional to laureth-9 concentration): often accompanied by nasal irritation such as stinging, congestion and rhinorrhea
